Like-named read-outs stand apart in the source and are kept apart here. No end group written: not given here.

One assay addresses GluN1/GluN2B (Homo sapiens, UniProt Q13224). The following applies: cited from earlier work.
The next assay addresses GluK2 (UniProt P42260). The assay can be described thus: Radioligand binding at cloned homomeric GluK2. To be noted: cloned homomeric subtype. From the text: (§1) Analog 2 was characterized pharmacologically in radio ligand binding assays at native iGluRs (rat synaptosomes) and cloned homomeric subtypes, GluK1-3 (Table 1).
In a further assay the test system is GluN1/GluN2A-D. The assay can be described thus: Functional assay for subtypes GluN1/GluN2A-D. It counts as biochemical.
The target in assay [1] is NMDA receptors. Briefly: Radioligand binding at native NMDA receptors (rat synaptosomes). To be noted: native iGluRs.
From the text: as §1

Assay [2] addresses AMPA receptors. The assay can be described thus: Radioligand binding at native AMPA receptors (rat synaptosomes). The following applies: native iGluRs.
From the text: as §1

Assay [3] deals with KA receptors. The assay can be described thus: Radioligand binding at native KA receptors (rat synaptosomes). The following applies: native iGluRs.
From the text: as §1

The target in a further assay is T1, GluK3 (Rattus norvegicus, UniProt P42264).
T1 construct: expressed in transfected cells
T1 sequence (P42264 32-919): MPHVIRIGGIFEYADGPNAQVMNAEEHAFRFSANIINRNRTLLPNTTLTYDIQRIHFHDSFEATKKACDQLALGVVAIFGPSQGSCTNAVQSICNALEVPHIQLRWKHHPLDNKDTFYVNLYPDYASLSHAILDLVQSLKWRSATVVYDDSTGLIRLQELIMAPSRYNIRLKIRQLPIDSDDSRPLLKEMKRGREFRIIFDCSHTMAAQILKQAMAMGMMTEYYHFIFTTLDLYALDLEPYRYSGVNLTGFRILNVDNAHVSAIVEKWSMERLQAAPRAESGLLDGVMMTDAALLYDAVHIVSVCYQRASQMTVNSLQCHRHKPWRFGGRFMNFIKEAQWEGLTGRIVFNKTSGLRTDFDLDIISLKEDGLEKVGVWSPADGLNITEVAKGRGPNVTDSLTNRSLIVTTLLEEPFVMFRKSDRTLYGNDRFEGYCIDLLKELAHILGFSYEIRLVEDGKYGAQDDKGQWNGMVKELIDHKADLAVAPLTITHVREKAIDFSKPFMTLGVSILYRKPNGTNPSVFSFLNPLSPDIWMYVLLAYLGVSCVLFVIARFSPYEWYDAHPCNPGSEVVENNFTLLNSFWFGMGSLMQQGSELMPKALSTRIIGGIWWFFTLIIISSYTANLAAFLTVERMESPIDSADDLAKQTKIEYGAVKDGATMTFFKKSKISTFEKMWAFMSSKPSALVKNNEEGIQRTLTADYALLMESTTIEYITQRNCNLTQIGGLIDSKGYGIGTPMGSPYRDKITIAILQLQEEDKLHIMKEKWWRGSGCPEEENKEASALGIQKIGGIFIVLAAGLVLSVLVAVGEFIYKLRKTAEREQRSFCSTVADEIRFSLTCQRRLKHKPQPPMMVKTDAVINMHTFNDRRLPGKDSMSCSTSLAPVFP
Briefly: Radioligand binding at cloned homomeric GluK3. The following applies: cloned homomeric subtype.
From the text: as §1

A further assay deals with GluK1 (UniProt P22756). The assay can be described thus: Radioligand binding at cloned homomeric GluK1. To be noted: cloned homomeric subtype.
From the text: as §1

For assay [4], the target named is NMDA receptors. The following applies: native iGluR; values taken from reference 49; cited from earlier work.
Assay [5] addresses AMPA receptors. The following applies: native iGluR; values taken from reference 49; cited from earlier work.
Assay [6] deals with KA receptors. The following applies: native iGluR; values taken from reference 49; cited from earlier work.

Sequence of GluN1/GluN2B (Q13224 27-1484, species assumed, other chains not shown): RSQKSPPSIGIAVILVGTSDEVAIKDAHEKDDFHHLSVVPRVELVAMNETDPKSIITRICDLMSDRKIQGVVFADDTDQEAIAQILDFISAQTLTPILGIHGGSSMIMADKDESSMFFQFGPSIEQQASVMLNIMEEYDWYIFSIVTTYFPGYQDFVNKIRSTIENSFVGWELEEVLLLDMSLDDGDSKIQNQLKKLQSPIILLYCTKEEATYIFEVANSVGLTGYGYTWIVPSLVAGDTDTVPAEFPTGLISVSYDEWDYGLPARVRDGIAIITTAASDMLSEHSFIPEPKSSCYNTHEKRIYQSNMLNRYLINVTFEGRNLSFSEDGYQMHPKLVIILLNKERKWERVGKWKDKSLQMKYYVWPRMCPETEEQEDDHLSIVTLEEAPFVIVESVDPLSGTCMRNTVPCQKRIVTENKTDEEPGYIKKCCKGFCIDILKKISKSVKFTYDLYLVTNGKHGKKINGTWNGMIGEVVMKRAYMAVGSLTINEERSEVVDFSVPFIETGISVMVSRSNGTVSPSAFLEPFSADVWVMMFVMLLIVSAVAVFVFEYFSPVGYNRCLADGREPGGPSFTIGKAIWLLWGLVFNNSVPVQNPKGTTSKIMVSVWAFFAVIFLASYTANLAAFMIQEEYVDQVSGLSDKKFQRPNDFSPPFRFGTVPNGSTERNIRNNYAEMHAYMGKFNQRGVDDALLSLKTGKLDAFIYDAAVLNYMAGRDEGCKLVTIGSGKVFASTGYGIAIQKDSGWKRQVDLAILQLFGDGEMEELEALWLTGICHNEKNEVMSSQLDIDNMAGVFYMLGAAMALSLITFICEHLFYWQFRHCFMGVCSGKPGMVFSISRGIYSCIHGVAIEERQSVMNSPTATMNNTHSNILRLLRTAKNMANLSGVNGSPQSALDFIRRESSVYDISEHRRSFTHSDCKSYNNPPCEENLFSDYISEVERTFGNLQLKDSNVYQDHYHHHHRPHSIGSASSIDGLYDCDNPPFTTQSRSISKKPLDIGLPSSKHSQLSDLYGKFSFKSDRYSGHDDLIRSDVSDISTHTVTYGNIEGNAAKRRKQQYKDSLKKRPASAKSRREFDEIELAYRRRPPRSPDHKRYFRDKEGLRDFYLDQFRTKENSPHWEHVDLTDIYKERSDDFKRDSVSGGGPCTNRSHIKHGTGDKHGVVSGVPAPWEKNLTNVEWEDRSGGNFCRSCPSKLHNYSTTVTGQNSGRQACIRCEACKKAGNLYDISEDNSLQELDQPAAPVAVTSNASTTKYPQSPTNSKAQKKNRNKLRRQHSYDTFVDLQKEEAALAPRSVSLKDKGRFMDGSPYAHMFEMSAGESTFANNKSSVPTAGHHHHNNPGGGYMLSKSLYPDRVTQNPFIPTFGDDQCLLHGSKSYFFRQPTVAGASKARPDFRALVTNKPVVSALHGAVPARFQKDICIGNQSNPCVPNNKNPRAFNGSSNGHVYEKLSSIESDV

Consider “Conantokin G (GEEELQENQELIREKSN; ends and bridges not checked; UniProt P07231 81-97, looked up)”, for which, in the assay with GluN1/GluN2B, the “preference for GluN1/GluN2B over GluN1/GluN2C and GluN1/2D” value is reported as 10 fold; the “selectivity for GluN1/GluN2B over GluN1GluN2A” value is given as 100 fold.

Take `O=C(O)c1ccc([C@H]2CCN[C@@H]2C(=O)O)cc1` [Analog 2, (2S,3R)-3-(4-Carboxyphenyl)pyrrolidine-2-carboxylic Acid]: the Ki is > 100 µM on GluK2, 8.5 µM on NMDA receptors [1], > 100 µM at GluK3 and > 100 µM at GluK1. For the same molecule, the “functional character at GluN1/GluN2A-D” value in the assay on GluN1/GluN2A-D is recorded as “antagonist”. The “NMDA, value in square brackets under Ki (pKi ± spread)” value at NMDA receptors [1] is “[5.07 ± 0.04]”. Also, the results for the IC50 at NMDA receptors [1] (read-out: affinity for the NMDA receptors (IC50)) and on AMPA receptors [2] were 8.5 µM and > 100 µM, respectively. Besides, at KA receptors [3], the “KA IC50” value is >100 µM.

As to `O=C(O)c1cccc([C@H]2CCN[C@@H]2C(=O)O)c1` [Analog 1], the Ki at NMDA receptors [4] was 6 µM. The IC50 at AMPA receptors [5] is 51 µM. Moreover, the “KA IC50” value on KA receptors [6] is 22 µM.
